In patent US12171755B2, “PAPD5 inhibitors and methods of use thereof” (Children's Medical Center Corporation, priority 2017, dated 2024):

Biological target: T1, PAPD5 (Homo sapiens, UniProt Q8NDF8)
T1 construct: made in house
Test: High-throughput luminescence (KinaseGlo) RNA polyadenylation assay, ATP utilization by recombinant PAPD5
Format: biochemical
Conditions: Table 4 (entries of Table 5), ratio of luminescence with inhibitor to DMSO; for Fold-change determined at compound concentration 33 μM: 33 μM compound; for Fold-change determined at compound concentration 100 μM: 100 μM compound, higher = higher inhibition
Summary of the method: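 Values are ratios of inhibitor to DMSO luminescence, so larger numbers mean less ATP consumed. Screening was run in duplicate with a 2 h room-temperature reaction of recombinant PAPD5, ATP and oligo RNA substrate plus compound. Residual ATP was detected after a 10 min KinaseGlo step.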

T1 sequence (Q8NDF8 68-698 isoform Q8NDF8-5): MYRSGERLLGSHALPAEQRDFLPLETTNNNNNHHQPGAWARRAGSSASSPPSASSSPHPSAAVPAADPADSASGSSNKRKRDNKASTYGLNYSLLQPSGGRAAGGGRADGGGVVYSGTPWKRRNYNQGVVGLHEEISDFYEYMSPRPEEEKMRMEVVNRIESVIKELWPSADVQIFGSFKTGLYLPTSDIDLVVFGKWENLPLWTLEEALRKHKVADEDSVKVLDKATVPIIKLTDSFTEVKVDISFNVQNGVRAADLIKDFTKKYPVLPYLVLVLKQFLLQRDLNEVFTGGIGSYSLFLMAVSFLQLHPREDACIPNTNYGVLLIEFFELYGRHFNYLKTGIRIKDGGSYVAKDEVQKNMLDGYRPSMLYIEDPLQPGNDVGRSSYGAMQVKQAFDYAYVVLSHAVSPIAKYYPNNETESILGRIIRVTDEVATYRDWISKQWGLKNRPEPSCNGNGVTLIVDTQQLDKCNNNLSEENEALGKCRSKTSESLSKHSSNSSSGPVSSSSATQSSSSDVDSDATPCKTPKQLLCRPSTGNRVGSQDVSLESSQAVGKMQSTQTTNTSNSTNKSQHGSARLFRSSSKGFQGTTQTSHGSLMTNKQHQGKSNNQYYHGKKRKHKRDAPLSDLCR

Structure (SMILES) | Fold-change determined at compound concentration 33 μM | Fold-change determined at compound concentration 100 μM
Cc1ccccc1C(=O)Nc1nc2nc(-c3ccccc3)cc(=O)n2[nH]1 [Entry 150, 2-methyl-N-(7-oxo-5-phenyl-1H-[1,2,4]triazolo[1,5-a]pyrimidin-2-yl)benzamide] | 1.19 | 1.577
Cc1cccc(C(=O)Nc2nc3nc(-c4ccccc4)cc(=O)n3[nH]2)c1 [Entry 151, 3-methyl-N-(7-oxo-5-phenyl-1H-[1,2,4]triazolo[1,5-a]pyrimidin-2-yl)benzamide] | 1.312 | 1.799
O=c1c2c([nH]c3nc(CNc4ccc(Br)cc4)nn13)CCC2 [Entry 152, 2-{[(4-bromophenyl)amino]methyl}-4,5,6,7-tetrahydro-8H-cyclopenta[d][1,2,4]triazolo[1,5-a]pyrimidin-8-one] | 1.146 | 1.461
CCCc1cc(=O)n2nc(CNc3ccc(Cl)cc3)nc2[nH]1 [Entry 155, 2-{[(4-chlorophenyl)amino]methyl}-5-propyl[1,2,4]triazolo[1,5-a]pyrimidin-7(4H)-one] | 1.097 | 1.372
O=S(=O)(NC1=NC2=NC(c3ccccc3)=CC(c3ccc(F)cc3)N2N1)c1ccc(Cl)cc1 (centres unmarked) [Entry 157, 4-chloro-N-[7-(4-fluorophenyl)-5-phenyl-1,7-dihydro-[1,2,4]triazolo[1,5-a]pyrimidin-2-yl]benzenesulfonamide] | 1.059 | 1.203
CCc1nc2[nH]c(-c3ccc(C)cc3)cc(=O)n2n1 [Entry 158, 2-ethyl-5-(4-methylphenyl)[1,2,4]triazolo[1,5-a]pyrimidin-7(4H)-one] | 1.13 | 1.364
Cc1ccc(S(=O)(=O)NC2=NC3=NC(c4ccccc4)=CC(c4ccc(Cl)cc4)N3N2)cc1 (centres unmarked) [Entry 159, N-[7-(4-chlorophenyl)-5-phenyl-1,7-dihydro-[1,2,4]triazolo[1,5-a]pyrimidin-2-yl]-4-methylbenzenesulfonamide] | 1.12 | 1.22
O=c1nc(SCc2ccc(F)cc2)[nH]c2nc[nH]c12 [Entry 162, 2-[(4-fluorophenyl)methylsulfanyl]-3,7-dihydropurin-6-one] | 1.153 | 1.431
Cc1ccccc1CSc1nc(=O)c2[nH]cnc2[nH]1 [Entry 163, 2-[(2-methylphenyl)methylsulfanyl]-3,7-dihydropurin-6-one] | 1.109 | 1.287
COCc1c(Br)c(C)nc2sc3c(=O)[nH]nnc3c12 [Entry 166, 8-bromo-9-(methoxymethyl)-7-methylpyrido[3′,2′:4,5]thieno[3,2-d][1,2,3]triazin-4(3H)-one] | 1.128 | 1.321

The next lines start with the values.

Fold-change determined at compound concentration 33 μM | Fold-change determined at compound concentration 100 μM | Structure (SMILES)
1.183 | 1.309 | CCOC(=O)c1ccc(NC(=O)CCc2c(C)nc3nc[nH]n3c2=O)cc1 [Entry 149, ethyl 4-[3-(5-methyl-7-oxo-1H-[1,2,4]triazolo[1,5-a]pyrimidin-6-yl)propanoylamino]benzoate]
1.077 | 1.259 | O=c1c2c([nH]c3nc(CNc4ccccc4F)nn13)CCC2 [Entry 153, 2-{[(2-fluorophenyl)amino]methyl}-4,5,6,7-tetrahydro-8H-cyclopenta[d][1,2,4]triazolo[1,5-a]pyrimidin-8-one]
1.013 | 1.282 | Cc1ccc(Cl)cc1NCc1nc2[nH]c3c(c(=O)n2n1)CCC3 [Entry 154, 2-{[(5-chloro-2-methylphenyl)amino]methyl}-4,5,6,7-tetrahydro-8H-cyclopenta[d][1,2,4]triazolo[1,5-a]pyrimidin-8-one]
1.212 | 1.516 | CCOC(=O)c1c[nH]c2nc(NCc3cccc(Br)c3)nn2c1=O [Entry 156, ethyl 2-[(3-bromophenyl)methylamino]-7-oxo-1H-[1,2,4]triazolo[1,5-a]pyrimidine-6-carboxylate]
1.075 | 1.239 | c1cc(OCCN2CCCCC2)cc(-c2n[nH]c3ccc(-c4ncn[nH]4)cc23)c1 [Entry 160, 3-[3-(2-piperidin-1-ylethoxy)phenyl]-5-(1H-1,2,4-triazol-5-yl)-1H-indazole]
1.126 | 1.293 | Cc1oc2ccccc2c1C(=O)CSc1nc(O)c2nc[nH]c2n1 [Entry 164, 2-[(6-hydroxy-9H-purin-2-yl)thio]-1-(2-methyl-1-benzofuran-3-yl)ethanone]
1.224 | 1.689 | COc1cc(-c2nc(C(N)=O)c3[nH]c(=O)n(CC4CCCO4)c3n2)ccc1O (centres unmarked) [Entry 165, 2-(4-hydroxy-3-methoxyphenyl)-8-oxo-9-(tetrahydrofuran-2-ylmethyl)-8,9-dihydro-7H-purine-6-carboxamide]
1.413 | 1.995 | COCc1c(Br)c(C)nc2sc3c(=O)n(-c4ccccc4C(=O)OC)nnc3c12 [Entry 167, methyl 2-(8-bromo-9-(methoxymethyl)-7-methyl-4-oxopyrido[3′,2′:4,5]thieno[3,2-d][1,2,3]triazin-3(4H)-yl)benzoate]
1.452 | 1.678 | Cc1c(C(=O)N2CCCC2)oc2c1-c1nn(CC(=O)NCCCOC(C)C)cc1CC2 [Entry 168, 2-[8-methyl-7-(pyrrolidine-1-carbonyl)-4,5-dihydrofuro[2,3-g]indazol-2-yl]-N-(3-propan-2-yloxypropyl)acetamide]
1.455 | 1.879 | CCOCCCNC(=O)Cn1cc2c(n1)-c1c(oc(C(=O)N3CCCC3)c1C)CC2 [Entry 169, N-(3-ethoxypropyl)-2-[8-methyl-7-(pyrrolidine-1-carbonyl)-4,5-dihydrofuro[2,3-g]indazol-2-yl]acetamide]
1.302 | 1.816 | Cc1ccccc1CNC(=O)Cn1cc2c(n1)-c1c(oc(C(=O)N3CCCC3)c1C)CC2 [Entry 170, N-[(2-methylphenyl)methyl]-2-[8-methyl-7-(pyrrolidine-1-carbonyl)-4,5-dihydrofuro[2,3-g]indazol-2-yl]acetamide]
1.374 | 1.777 | COCCNC(=O)Cn1cc2c(n1)-c1c(oc(C(=O)N3CCCC3)c1C)CC2 [Entry 171, N-(2-methoxyethyl)-2-[8-methyl-7-(pyrrolidine-1-carbonyl)-4,5-dihydrofuro[2,3-g]indazol-2-yl]acetamide]
